Experimental data: paper PMC11802567, “Anti-cancer activity of synthetic gefitinib-1,2,3-triazole derivatives against Hela cells via induction of apoptosis” (Frontiers in Chemistry, 2025)
Converted amounts (≈) assume the structure as drawn. Read-outs that look alike come from different tables or passages of the source.

Columns and labels:
[1] = test system: Hela cells; set-up: method as in Khanam et al., 2019; conditions: ref Khanam et al., 2019; cited from earlier work
[2] = test system: Hela cells; assay: MTT cell viability assay, Hela cells; type: cell-based; conditions: Homo sapiens, 48 h; for viability at 10 µM: mean ± SEM (n = 3)
[3] = test system: HEK293T cells; assay: MTT cell viability assay, HEK293T cells; type: cell-based; conditions: Homo sapiens, HEK-293T, 48 h, tested 0-40 μM
Method: (§1) To define the effects of compound c13 on cancer cell proliferation, the half-maximal inhibitory concentration (IC50) of compound c13 in Hela cells was calculated. Hela cells were treated with compound c13 at different concentrations (0 μM, 1 μM, 5 μM, 10 μM, 20 μM, and 40 μM) respectively for 48 h, and the cell viability was detected using the MTT method. […]. […] In contrast, its effect on the proliferation of HEK293T and NIH3T3 cells was minimal, with both IC50 values exceeding 100 μM.
(§2) Figure S1. The effect of compound c13 on the survival rate of HEK293T, NIH3T3, and Hela cells. compound c13 (0, 10, 20, and 40 μM) was used to treat HEK293T, NIH3T3, and Hela cells for 48 hours, and the cell survival rate was detected using the MTT method (n=3).

[4] = test system: NIH3T3 cells; assay: MTT cell viability assay, NIH3T3 cells; type: cell-based; conditions: Mus musculus, 48 h, tested 0-40 μM
Method: as §1, §2

[5] = test system: Hela cells; assay: Morphological profiles of Hela cells by microscope; type: cell-based, human; conditions: 0, 5, 10, 20 μM
Method: FIGURE 2 Anti-proliferative Effects of compound c13 on Hela cells. (A) Dose-dependent cytotoxicity of compound c13, assessed at concentrations ranging from 0 to 40 μM on HeLa cells. Cell viability was plotted against the logarithm of compound c13 concentrations (n = 3). (B) Morphological profiles of Hela cells were taken by microscope after treatment with compound c13 at different doses (0, 5, 10, and 20 μM) (n = 3). (C) Representative photomicrographs of plate colony formation assay data with compound c13 at different doses (0, 5, 10, and 20 μM) (n = 3).
(§3) To validate the impact of compound c13 on cell proliferation, plate clone formation assay was performed.

[6] = test system: Hela cells; assay: Cell cycle analysis by flow cytometry (PI); type: cell-based, human; conditions: 48 h
Method: To further evaluate the effect of compound c13 on the cell cycle, the cell cycle distributions of Hela cells after treatment of compound c13 were detected by flow cytometry.
Hela cells with a density of 1.5 × 10^5 cells/well were seeded in 12-well plates overnight. Different concentrations of compounds (0, 5, 10, and 20 μM) were added to treat the cells for 48 h. After treatment, the cells were washed with PBS and then the cells were fixed with 70% ethanol at −20°C overnight. Subsequently, the cells were stained with PI staining solution containing 10 μg/mL RNAase for 30 min in the dark. The data was collected by BD Accuri C6 Plus flow cytometry (BD Biosciences). All analyses were performed with FlowJo software.

[7] = test system: Hela cells; assay: Plate clone formation assay; type: cell-based, human; conditions: 0, 5, 10, 20 μM, dose-dependent
Method: as §3
Hela cells with a density of 5 × 10^2 cells/well were seeded in 6-well plates overnight. The cells were treated with different concentrations of compounds (0, 5, 10, and 20 μM) were added and continued to be cultured at 37°C with 5% CO2. When more than 50 cell clone formations were visible, the culture medium was discharged. Then, the cells were fixed with 2 mL of 4% paraformaldehyde for 15 min and stained with 2 mL of crystal violet solution at room temperature for 15 min. A microscope was used to take photos and count the number of cell clones.

[8] = test system: Bax, Bcl-2, caspase 9, caspase 3, PARP1 in Hela cells; assay: Western blot of apoptosis-associated proteins in Hela cells; type: cell-based, human; conditions: 10 and 20 μM
Description: To explore whether the induction of apoptosis caused by compound c13 was associated with the activation of the apoptosis-related protein, a western blot was used to detect the expression of the protein including Bax and Bcl-2. […] Furthermore, the ratio of Bax to Bcl-2 was raised after being treated with compound c13, leading to apoptosis in Hela cells.
To determine the potential function of compound c13 in the regulation of the apoptosis signaling pathway, downstream key proteins containing caspase 3, caspase 9, and PARP1 were detected by western blot. […] Besides, a corresponding increase in the levels of cleaved-caspase 3, and cleaved-PARP1 was observed (Figure 6).
Whole cell extracts were prepared by lysing cells on ice for 30 min using RIPA lysis buffer (Beyotime Biotechnology, Shanghai, China). Following centrifugation at 12, 000 g for 15 min at 4°C, the supernatants were collected. The protein content concentrations of samples were determined according to the manufacturer’s protocol for the BCA protein assay kit (Thermo Scientific, Rockford, IL, United States).
Equal amounts of protein were resolved using sodium dodecyl sulfate polyacrylamide gel electrophoresis (SDS-PAGE) and subsequently transferred to a 0.2 μm nitrocellulose membrane. The membranes underwent blocking for a minimum of 1 h in 5% skimmed milk diluted in TBST. Subsequently, the blots were incubated overnight at 4°C with primary antibodies. Primary antibodies used were include, Bcl-2 (ABclonal, Wuhan, China), Bax (Wanleibio, Shenyang, China), Caspase 9/p35/p10 antibody (Proteintech, Wuhan, China), Caspase 3/p17/p19 (Proteintech, Wuhan, China), PARP-1 (Proteintech, Wuhan, China), β-actin (Sigma-Aldrich, St Louis, MO, United States). Following incubation, the membranes were washed three times with TBST buffer and then incubated with secondary antibodies (Kangchen Biotechnology, Shanghai, China) for 1 h at room temperature. Subsequently, the blots were washed three times with TBST buffer and developed using an enhanced chemiluminescence reagent (Millipore Corporation, Bedford, MA, United States). The intensity of each protein band was quantitatively analyzed using ImageJ software.

[9] = test system: Hela cells; assay: Apoptosis assay, Annexin V-FITC/PI flow cytometry; type: cell-based, human; conditions: 20 μM, 48 h
Method: To assess whether the anti-proliferative effects of compound c13 on Hela cells were associated with apoptosis, cell apoptosis after treatment of compound c13 was measured using Annexin V-FITC and propidium iodide (PI) staining by flow cytometer. […] Compared with the normal control group, compound c13 at 20 μM markedly raised the apoptotic ratio of Hela cells to 62.03% ± 9.48%.
Hela cells with a density of 1.5 × 10^5 cells/well were seeded in 12-well plates overnight for adhesion. The cells were treated with different concentrations of compounds (0, 5, 10, and 20 μM) for 48 h. After treatment, the cells were washed with PBS and stained with Annexin V-FITC and Propidium Iodide (PI) for 15 min in the dark. Cell apoptosis rate was detected by BD Accuri C6 Plus flow cytometry (BD Biosciences) and all analyses were performed with FlowJo software.

[10] = test system: Hela cells; set-up: method as in Huang et al., 2022; conditions: 72-h treatment; ref Huang et al., 2022; read-out: IC50, cytotoxicity to Hela cells; cited from earlier work

In the case of `Nc1ccc(-c2nnc(CN3CCN(C(c4ccccc4)c4ccccc4)CC3)o2)cc1` [4d, N-benzhydryl-4-((5-(4-aminophenyl)-1,3,4-oxadiazol-2-yl)methyl)piperazine], the “IC50, HeLa cells” value [1] is listed as 28.13 ± 0.21 µg/mL (≈ 66.1 µM).

Compound `COc1cccc2c1C(=O)c1c(O)c3c(c(O)c1C2=O)C[C@@](O)(C(=O)CO)C[C@@H]3O[C@H]1C[C@H](N)[C@H](O)[C@H](C)O1` [Doxorubicin, reference compound] has a viability at 10 µM [2] of 11.9 ± 1.2%.

With `COc1cc2ncnc(Nc3ccc(F)c(Cl)c3)c2cc1OCCCN1CCOCC1` [Gefitinib] the viability at 10 µM [2] was 75.9 ± 2.88%.

Compound `COc1cc2ncnc(Nc3cccc(-c4cn(Cc5cc(Br)cc(Br)c5)nn4)c3)c2cc1OCCCN1CCOCC1` [c13, N-(3-(1-(3,5-dibromobenzyl)-1H-1,2,3-triazol-4-yl)phenyl)-7-methoxy-6-(3-morpholinopropoxy)quinazolin-4-amine] has an IC50 [3] of over 100 µM, an IC50 [4] of over 100 µM and a viability at 10 µM [2] of 32.6 ± 8.61%. For the same compound, the IC50 ([2]; read-out: IC50 against Hela cells) was 5.66 ± 0.35 µM, the “Morphological changes of Hela cells” value [5] was “severe morphological changes” and the “Proportion of the G1 phase” value ([6]; 20 μM, printed as % of control group) was 52.05% ± 2.85%. The “Percentage of cells in the G2/M phase” value ([6]; 10 and 20 μM) was “upregulated”, the “Colony formation ability of Hela cells” value [7] was “significantly inhibited the colony formation ability” and the “Level of cleaved-PARP1” value [8] was “increase”. The “Level of cleaved-caspase 3” value [8] was “increase”, the “Level of cleaved-caspase 9” value [8] was “tendency of upregulation but had no significant difference” and the “Protein expression of pro-apoptotic Bax” value [8] was “enhanced”. The “Protein level of anti-apoptotic Bcl-2” value [8] was “diminished”, the “Ratio of Bax to Bcl-2” value [8] was “raised” and the “Protein level of full-length PARP1” value ([8]; vs control group) was “decreased”. The “Protein level of full-length caspase 3” value ([8]; vs control group) was “decreased”, the “Protein level of full-length caspase 9” value ([8]; vs control group) was “decreased” and the “Apoptotic ratio of Hela cells” value [9] was 62.03% ± 9.48%.

For `C[C@]12CC[C@@H]3c4ccc(O)cc4CC[C@H]3[C@@H]1CC[C@@H]2O` [β-estradiol], the IC50 [10] is listed as 18.7 ± 1.57 µM.
